Source: ChEMBL document CHEMBL5046316, “Structure-Based Optimization of a Fragment-like TLR8 Binding Screening Hit to an In Vivo Efficacious TLR7/8 Antagonist” (ACS Med Chem Lett, 2022)

Legend:
[1] = Oral bioavailability in Balb/c mouse at 10 mg/kg administered as cassette dose measured upto 24 hrs by LC/MS/MS analysis; type: ADME, organism-based; settings: in vivo
[2] = biological target: T1, Toll-like receptor 9 (Homo sapiens, UniProt Q9NR96); experiment: Antagonist activity at human TLR9 expressed in human whole blood assessed as inhibition of ODN2216 stimulated IFNalpha level preincubated for 30 mins followed by stimulation and measured after 20 hrs by AlphaLISA method; type: tissue-based
T1 sequence (Q9NR96 whole entry): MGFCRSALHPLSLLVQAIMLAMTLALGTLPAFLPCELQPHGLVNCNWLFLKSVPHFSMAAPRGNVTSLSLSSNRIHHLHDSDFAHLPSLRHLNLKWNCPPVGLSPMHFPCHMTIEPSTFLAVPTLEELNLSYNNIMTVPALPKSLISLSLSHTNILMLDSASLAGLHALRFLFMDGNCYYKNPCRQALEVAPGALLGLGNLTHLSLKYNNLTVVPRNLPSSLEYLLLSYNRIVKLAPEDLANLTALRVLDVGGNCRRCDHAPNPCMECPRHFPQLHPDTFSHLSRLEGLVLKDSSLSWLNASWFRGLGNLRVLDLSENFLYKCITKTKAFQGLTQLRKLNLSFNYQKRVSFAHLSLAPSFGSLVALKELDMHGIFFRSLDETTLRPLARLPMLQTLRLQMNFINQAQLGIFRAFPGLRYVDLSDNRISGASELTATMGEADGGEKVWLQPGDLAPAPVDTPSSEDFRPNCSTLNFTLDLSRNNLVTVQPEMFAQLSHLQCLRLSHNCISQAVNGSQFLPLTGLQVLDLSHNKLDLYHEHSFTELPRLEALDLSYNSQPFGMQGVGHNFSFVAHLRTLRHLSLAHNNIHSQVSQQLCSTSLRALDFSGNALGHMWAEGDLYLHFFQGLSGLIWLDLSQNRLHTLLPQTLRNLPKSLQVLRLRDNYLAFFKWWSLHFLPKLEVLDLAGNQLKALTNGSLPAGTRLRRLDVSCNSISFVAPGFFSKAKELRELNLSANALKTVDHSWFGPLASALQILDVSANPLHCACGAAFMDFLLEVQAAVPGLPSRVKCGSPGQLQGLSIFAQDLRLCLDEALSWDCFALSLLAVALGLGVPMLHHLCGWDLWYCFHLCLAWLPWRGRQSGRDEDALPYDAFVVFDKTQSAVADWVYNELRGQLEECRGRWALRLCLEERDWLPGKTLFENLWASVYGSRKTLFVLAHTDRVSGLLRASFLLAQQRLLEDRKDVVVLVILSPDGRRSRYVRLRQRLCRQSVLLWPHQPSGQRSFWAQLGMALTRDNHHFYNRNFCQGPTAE

[3] = MRT in Balb/c mouse at 10 mg/kg, po or 1 mg/kg, iv administered as cassette dose measured upto 24 hrs by LC/MS/MS analysis; type: ADME, organism-based; settings: in vivo
[4] = Clearance in Balb/c mouse at 10 mg/kg, po or 1mg/kg, iv administered as cassette dose measured upto 24 hrs by LC/MS/MS analysis; type: ADME, organism-based; settings: in vivo
[5] = Dose normalized Cmax in Balb/c mouse at 10 mg/kg, po and 1 mg/kg, iv administered as cassette dose measured upto 24 hrs by LC/MS/MS analysis; type: ADME, organism-based; settings: in vivo
[6] = biological target: T2, Toll-like receptor 7 (Mus musculus, UniProt P58681); experiment: Antagonist activity at mouse TLR7 expressed in human whole blood assessed as inhibition of ssRNA stimulated IFNalpha level preincubated for 30 mins followed by stimulation and measured after 20 hrs by AlphaLISA method; type: tissue-based
T2 sequence (P58681 whole entry): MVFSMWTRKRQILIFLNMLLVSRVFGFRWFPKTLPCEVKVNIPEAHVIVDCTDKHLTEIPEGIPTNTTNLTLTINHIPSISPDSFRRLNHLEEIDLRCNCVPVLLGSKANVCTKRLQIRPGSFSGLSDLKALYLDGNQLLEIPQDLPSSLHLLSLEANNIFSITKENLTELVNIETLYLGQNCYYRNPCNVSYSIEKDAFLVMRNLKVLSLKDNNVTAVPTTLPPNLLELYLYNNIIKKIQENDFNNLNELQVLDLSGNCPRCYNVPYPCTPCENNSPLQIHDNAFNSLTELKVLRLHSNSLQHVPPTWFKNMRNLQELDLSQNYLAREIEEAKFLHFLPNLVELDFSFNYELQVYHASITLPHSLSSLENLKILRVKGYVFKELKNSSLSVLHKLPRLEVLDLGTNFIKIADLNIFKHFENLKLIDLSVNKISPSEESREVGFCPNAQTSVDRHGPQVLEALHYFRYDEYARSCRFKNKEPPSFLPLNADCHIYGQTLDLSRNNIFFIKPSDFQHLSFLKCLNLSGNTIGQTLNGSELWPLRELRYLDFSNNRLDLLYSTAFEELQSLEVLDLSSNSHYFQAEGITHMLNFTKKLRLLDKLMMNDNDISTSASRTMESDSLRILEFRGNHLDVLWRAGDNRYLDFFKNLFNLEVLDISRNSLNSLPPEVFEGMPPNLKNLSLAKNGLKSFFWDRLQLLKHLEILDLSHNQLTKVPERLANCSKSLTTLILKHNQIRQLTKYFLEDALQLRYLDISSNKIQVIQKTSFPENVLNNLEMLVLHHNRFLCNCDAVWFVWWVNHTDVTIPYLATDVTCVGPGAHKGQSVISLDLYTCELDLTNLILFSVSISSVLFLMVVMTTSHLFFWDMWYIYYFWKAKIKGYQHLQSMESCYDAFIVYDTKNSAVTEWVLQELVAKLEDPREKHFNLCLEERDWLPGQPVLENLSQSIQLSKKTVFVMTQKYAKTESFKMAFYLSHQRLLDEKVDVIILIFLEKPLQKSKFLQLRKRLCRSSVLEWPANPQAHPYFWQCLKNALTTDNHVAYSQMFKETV

[7] = Octanol/water partition coefficient, logD of compound at pH 7.4 measured after 4 hrs by shake flask method; type: physicochemical
[8] = biological target: T1, Toll-like receptor 9; experiment: Antagonist activity at human TLR9 expressed in human PBMC cells assessed as inhibition of ODN2216 stimulated IFNalpha level preincubated for 30 mins followed by stimulation and measured after 20 hrs by AlphaLISA method; type: cell-based

- bioavailability [1]: 38%
- IC50 [2]: 0.39 µM
- MRT [3]: 2.5 h
- clearance [4]: 3.3 L/h/kg
- Cmax/dose [5]: 79 nM/mg/kg
- IC50 [6]: 0.002 µM
- logD at 4 h [7]: 2.7
- IC50 [8]: > 0.57 µM
Structure (SMILES): Cc1cc(-c2cc3[nH]nc(N[C@@H]4CCNC[C@H]4F)c3cc2C2CC2)cc(C)n1
